Measurements from patent US11273144B2, “Compounds and compositions for the treatment of muscular disorders and bone disorders” (Epirium Bio Inc., priority 2012, dated 2022).
Where “and” joins values, the source holds several entries; their conditions need not be identical. Equal entries are not always repeated.

How the values were obtained:
[1] = tested on: mouse myoblast cell line, C2C12; assay: Mouse myoblast assay (C2C12, Western blot); type: cell-based; conditions: C2C12, enantiomers 10 nM to 1000 nM, within 24 hr
Protocol: Cells or skeletal muscle tissue samples were homogenized in 50 ul lysis buffer (1% triton X-100, 20 mmol/L Tris, 140 mmol/L NaCl, 2 mmol/L EDTA, and 0.1% SDS) with protease and phosphatase inhibitor cocktails supplemented with 1 mmol/L PMSF, 2 mmol/L Na3VO4 and 1 mmol/L NaP. Homogenates were passed through an insulin syringe five times, sonicated for 30 min at 4DC and centrifuged (12,000×g) for 10 min. The total protein content was measured in the supernatant. A total of 40)Ig of protein was loaded onto a 5% or 10% SDS-PAGE, electrotransferred, incubated for 1 h in blocking solution (5% nonfat dry milk in TBS plus 0.1% Tween 20 [TBS-T]), followed by either a 3-h incubation at room temperature or overnight incubation at 4DC with primary antibodies. Primary antibodies were typically diluted 1:1000 or 1:2000 in TBS-T plus 5% bovine serum albumin. Membranes were washed (3× for 5 min) in TBS-T and incubated 1 h at room temperature in the presence of HRP-conjugated secondary antibodies diluted 1:10,000 in blocking solution. Membranes were again washed 3 times in TBS-T, and the immunoblots were developed using an enhanced chemiluminescence detection kit. The band intensities were digitally quantified. All primary antibodies are commercially available. Epicatechin induces follistatin expression, suppresses myostatin expression and accelerates the differentiation of cultured mouse myoblasts into myotubes. […] The mouse myoblast cell line, C2C12, was grown to semi-confluence in 6-well tissue culture plates and then exposed to epicatechin (100 nM) for three days using literature-standardized differentiation inducing media: DMEM supplemented with 2% horse serum. Proteins were extracted, separated by conventional gel electrophoresis and stained as Western blots by reacting with commercially available antibodies specific for markers of muscle cell growth and differentiation. In experiments examining the comparative effects of (−) and (+) epicatechin enantiomers on muscle cells, the cells were grown to semi-confluence in 6 well plates, placed into literature-standardized differentiation medium containing horse serum, and then stimulated for 24 hours with (−) or (+) epicatechin enantiomers, at concentrations ranging from 10 nM to 1000 nM. The cells were then harvested as above, and Western blots were prepared to determine relative expression of PGCla and follistatin, using commercially available, specific, primary antibodies.

[2] = Effect on body growth of rats on dexamethasone with or without epicatechin; type: in vivo, SD rats; conditions: for Femur Length / Tibia Length: 37th day; for WEIGHT Avg / LENGTH Avg: group average; for WEIGHT Ind: individual rat
Protocol: SD rats of the body weight 50-60 g and age 3-4 weeks were divided into 4 groups. […] All dosing were by subcutaneous (SC) mode of administration. Dosing of animals was continued for 36 days. Body weight was measured every alternate day, overall length was measured weekly. Animals were photographed periodically to further support data. Feed intake, general health and movement were assessed routinely. On 37th day animals were sacrificed and femur and tibia length were measured using Vernier Calipers. Blood was collected and stored.

[3] = epicatechin 3 MPK s/c followed by dexamethasone
[4] = epicatechin 10 MPK s/c followed by dexamethasone

Oc1cc(O)c2c(c1)O[C@@H](c1ccc(O)c(O)c1)[C@@H](O)C2 [(+) epicatechin, (+)−epicatechin]
expression of PGC1u [1]: stimulated
expression of follistatin [1]: stimulated

Oc1cc(O)c2c(c1)O[C@H](c1ccc(O)c(O)c1)[C@H](O)C2 [(−) epicatechin, (−)−epicatechin]
expression of PGC1u [1]: stimulated
expression of follistatin [1]: stimulated

C[C@@H]1C[C@H]2[C@@H]3CCC4=CC(=O)C=C[C@]4(C)[C@@]3(F)[C@@H](O)C[C@]2(C)[C@@]1(O)C(=O)CO [DEX, Dexamethasone]
Femur Length ([2]; dexamethasone s/c alone): 22.68 mm
Tibia Length ([2]; dexamethasone s/c alone): 28.67 mm
WEIGHT Avg ([2]; Day 1, dexamethasone alone SC): 59.3 g
WEIGHT Ind ([2]; Day 1, dexamethasone alone SC): 55.4 g and 57.7 g and 64.8 g
WEIGHT Avg ([2]; Day 11, dexamethasone alone SC): 89.1 g
WEIGHT Ind ([2]; Day 11, dexamethasone alone SC): 91.1 g and 84.3 g and 91.9 g
LENGTH Avg ([2]; Day 13, dexamethasone alone SC): 15.3 cm
LENGTH Avg ([2]; Day 23, dexamethasone alone SC): 14.2 cm
WEIGHT Avg ([2]; Day 23, dexamethasone alone SC): 85.7 g
WEIGHT Ind ([2]; Day 23, dexamethasone alone SC): 88.0 g and 80.0 g and 89.0 g
LENGTH Avg ([2]; Day 35, dexamethasone alone SC): 14.2 cm
WEIGHT Avg ([2]; Day 35, dexamethasone alone SC): 96.1 g
WEIGHT Ind ([2]; Day 35, dexamethasone alone SC): 103.9 g and 93.1 g and 91.5 g

Oc1cc(O)c2c(c1)O[C@H](c1ccc(O)c(O)c1)[C@H](O)C2 [epicatechin]
Femur Length [2, 3]: 29.57 mm
Tibia Length [2, 3]: 34.91 mm
Femur Length [2, 4]: 31.30 mm
Tibia Length [2, 4]: 35.37 mm
